Where a name gives a salt, the structure may show the parent alone. Bridge positions count the residues as written; N and C are the ends. Square brackets hold non-standard residues; d marks the D form. Peptide text beside a SMILES is read from it. * marks the point of attachment. ξ: configuration not given here. ξβ3hGly(cHex) = NC(CC(=O)*)C1CCCCC1; Thr(3ξ) = CC(O)[C@H](N)C(=O)O; X11 = O=C(C(O)c1cccc(Br)c1)*; Dab = NCC[C@H](N)C(=O)O
Tests used:
Experiment in all cases: MIC, compound in combination with a second agent (broth microdilution)
Assay type in all cases: cell-based
[1] = system: Acinetobacter baumannii; settings: 1:1 (wt:wt) combination with Rifampicin, MIC = total drug concentration; for MIC A. baumannii ATCC BAA-747: strain ATCC BAA-747; for MIC A. baumannii CCUG57249: strain CCUG57249; for MIC A. baumannii NCTC 13423: strain NCTC 13423; for MIC A. baumannii NCTC 13424: strain NCTC 13424
Method in brief: (§1)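 Broth microdilution with inoculum from 18-24 h Mueller-Hinton agar colonies adjusted to 0.5 McFarland, up to four strains per species. Compound combined 1:1 w/w with second agent (e.g. rifampicin), mass as salt form; MIC is total drug concentration. Duplicates, lower value reported if within 2-fold; modal value for repeat tests.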

[2] = system: Escherichia coli; settings: 1:1 (wt:wt) combination with Rifampicin, MIC = total drug concentration; for MIC E. coli ATCC25922: strain ATCC25922; for MIC E. coli NCTC9001: strain NCTC9001
Method in brief: as §1

[3] = system: Klebsiella pneumoniae; settings: 1:1 (wt:wt) combination with Rifampicin, MIC = total drug concentration; for MIC K. pneumoniae ATCC-BAA-2146: strain ATCC-BAA-2146; for MIC K. pneumoniae CCUG-59348: strain CCUG-59348; for MIC K. pneumoniae NCTC 13438: strain NCTC 13438
Method in brief: as §1

[4] = system: Pseudomonas aeruginosa; settings: 1:1 (wt:wt) combination with Rifampicin, MIC = total drug concentration; for MIC P. aeruginosa ATCC 27853: strain ATCC 27853; for MIC P. aeruginosa ATCC CRM-9027: strain ATCC CRM-9027; for MIC P. aeruginosa ATCC-47: strain ATCC-47; for MIC P. aeruginosa CCUG 59626: strain CCUG 59626
Method in brief: as §1

## CC(C)C[C@@H]1NC(=O)[C@@H](CC(C)C)NC(=O)[C@H](CCN)NC(=O)[C@@H](NC(=O)[C@H](CCN)NC(=O)[C@@H](NC(=O)C(O)C2CCCCC2)C(C)O)CCNC(=O)[C@H](C(C)O)NC(=O)[C@H](CCN)NC(=O)[C@H](CCN)NC1=O (single isomer, unassigned; isomer 1) [Example 31, 2(RS)-(2-Hydroxy-2-cyclohexyl)ethanoyl polymyxin E nonapeptide, TFA salt. Isomer 1]
[1]
  MIC A. baumannii ATCC BAA-747: 0.25 micrograms/mL
  MIC A. baumannii CCUG57249: 0.25 micrograms/mL
  MIC A. baumannii NCTC 13423: 0.25 micrograms/mL
  MIC A. baumannii NCTC 13424: 0.5 micrograms/mL
[2]
  MIC E. coli ATCC25922: 0.25 micrograms/mL
  MIC E. coli NCTC9001: 0.5 micrograms/mL
[3]
  MIC K. pneumoniae ATCC-BAA-2146: 2 micrograms/mL
  MIC K. pneumoniae CCUG-59348: 2 micrograms/mL
  MIC K. pneumoniae NCTC 13438: 1 micrograms/mL
[4]
  MIC P. aeruginosa ATCC 27853: 0.5 micrograms/mL
  MIC P. aeruginosa ATCC CRM-9027: 0.5 micrograms/mL
  MIC P. aeruginosa ATCC-47: 0.5 micrograms/mL
  MIC P. aeruginosa CCUG 59626: 0.25 micrograms/mL

## CC(C)C[C@@H]1NC(=O)[C@@H](Cc2ccccc2)NC(=O)[C@H](CCN)NC(=O)[C@@H](NC(=O)[C@H](CCN)NC(=O)[C@@H](NC(=O)C(O)c2cccc(Br)c2)C(C)O)CCNC(=O)[C@H](C(C)O)NC(=O)[C@H](CCN)NC(=O)[C@H](CCN)NC1=O (some centres unmarked) [Example 18] (X11-[Thr(3ξ)][Dab][Dab][Dab][dF]L[Dab][Dab][Thr(3ξ)]; lactam 3-C)
[1]
  MIC A. baumannii CCUG57249: ≤0.06 micrograms/mL
  MIC A. baumannii NCTC 13423: 0.125 micrograms/mL
  MIC A. baumannii NCTC 13424: 0.125 micrograms/mL
[2]
  MIC E. coli ATCC25922: 0.125 micrograms/mL
  MIC E. coli NCTC9001: 1 micrograms/mL
[3]; strain ATCC 4352
  MIC K. pneumoniae ATCC 4352: 0.125 micrograms/mL
[3]
  MIC K. pneumoniae ATCC-BAA-2146: 0.5 micrograms/mL
  MIC K. pneumoniae CCUG-59348: 2 micrograms/mL
  MIC K. pneumoniae NCTC 13438: 0.5 micrograms/mL
[4]
  MIC P. aeruginosa ATCC 27853: 0.25 micrograms/mL
  MIC P. aeruginosa ATCC CRM-9027: 1 micrograms/mL
  MIC P. aeruginosa ATCC-47: 0.5 micrograms/mL
  MIC P. aeruginosa CCUG 59626: 0.25 micrograms/mL

## CC(C)C[C@@H]1NC(=O)[C@@H](CC(C)C)NC(=O)[C@H](CCN)NC(=O)[C@@H](NC(=O)[C@H](CCN)NC(=O)[C@@H](NC(=O)CC(N)C2CCCCC2)C(C)O)CCNC(=O)[C@H](C(C)O)NC(=O)[C@H](CCN)NC(=O)[C@H](CCN)NC1=O (stereo partly drawn) [Example 30, 3(R,S)-3-Amino-3-cyclohexane-propanoyl]Polymyxin E nonapeptide, TFA salt] ({ξβ3hGly(cHex)}-[Thr(3ξ)][Dab][Dab][Dab][dL]L[Dab][Dab][Thr(3ξ)]; lactam 3-C)
[1]
  MIC A. baumannii ATCC BAA-747: ≤0.06 micrograms/mL
  MIC A. baumannii CCUG57249: 0.125 micrograms/mL
  MIC A. baumannii NCTC 13423: ≤0.06 micrograms/mL
  MIC A. baumannii NCTC 13424: <0.06 micrograms/mL
[2]
  MIC E. coli ATCC25922: 0.25 micrograms/mL
[3]
  MIC K. pneumoniae ATCC-BAA-2146: 0.25 micrograms/mL
  MIC K. pneumoniae CCUG-59348: 2 micrograms/mL
  MIC K. pneumoniae NCTC 13438: 0.5 micrograms/mL
[4]
  MIC P. aeruginosa ATCC 27853: 0.25 micrograms/mL
  MIC P. aeruginosa ATCC CRM-9027: 0.125 micrograms/mL
  MIC P. aeruginosa ATCC-47: 0.125 micrograms/mL
  MIC P. aeruginosa CCUG 59626: 0.25 micrograms/mL
